According to PMC12169614, “Exploring Long Arm Amide-Linked Side Chains in the Design of Antifungal Azole Inhibitors of Sterol 14α-Demethylase (CYP51)” (Journal of Medicinal Chemistry, 2025):

Legend:
CYP3A4 = CYP3A4 (Homo sapiens, UniProt P08684); test: CYP IC50 profile, CYP3A4; format: biochemical; conditions: human liver drug metabolizing enzyme; read-out: CYP IC50 3A4
[1] = tested on: Y2300 ScCYP51 overexpressed; test: Agarose (disk) diffusion assay, strain Y2300; format: cell-based, S. cerevisiae; conditions: 10 nmol/disk, 30 °C, 48 h
Excerpt: (§1) Final compounds were screened as racemic mixtures using agarose diffusion assays to visualize their inhibitory activity against a panel of recombinant S. cerevisiae strains i.e., S. cerevisiae strains expressing control levels of wild-type CYP51 (ScCYP51), overexpressed wild-type ScCYP51, overexpressed azole-resistant ScCYP51 Y140F/H mutations and overexpressed C. albicans efflux pumps MDR1a or CDR1B (Figure and Table S1).
(§2) The susceptibilities of S. cerevisiae and Candida species strains to azole compounds were observed as zones of growth inhibition in agarose diffusion assays. The disk diffusion assays were carried out as described by Keniya et al. Complete supplement mixture (CSM) agarose (0.6% agarose [wt/vol]; 20 mL of synthetic defined medium (SD); pH 6.8–7) was solidified in a rectangular Petri dish which was overlaid with CSM agarose (0.6% [wt/vol]; 5 mL; pH 6.8–7) seeded with yeast cells at an optical density (OD600) of 0.008 (118,000 cells per 1 mL of overlay). Azole compounds (10 nmol/disk) were applied to sterile BBL paper disks (Becton Dickinson Co., Sparks, MD) and placed on solidified overlays. Cell growth was assessed after incubation at 30 °C for 48 h.

[2] = tested on: Y525 MFS efflux pump CaMDR1a overexpressed; test: Agarose (disk) diffusion assay, strain Y525; format: cell-based, S. cerevisiae; conditions: 10 nmol/disk, 30 °C, 48 h
Excerpt: as §1, §2

[3] = tested on: Y2301 ScCYP51 Y140F mutant; test: Agarose (disk) diffusion assay, strain Y2301; format: cell-based, S. cerevisiae; conditions: 10 nmol/disk, 30 °C, 48 h
Excerpt: as §1, §2

Y2374 OE CgCYP51 = test: MIC80 determination, strain Y2374; format: cell-based, S. cerevisiae; conditions: Saccharomyces cerevisiae
How it was run: (§3)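 Inoculum OD600 0.005 (1.5 × 10^4 CFU); 30 °C, 200 rpm; 48 h S. cerevisiae, 24 h C. albicans; OD600 read-out; MIC80 from triplicates, 4-clone pools, 3 independent expts.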

2711 CnCYP51 OE CnCPR = test: MIC80 determination, strain 2711; format: cell-based, S. cerevisiae
How it was run: as §3

Y2411 Endog. ScCYP51 = test: MIC80 determination, strain Y2411; format: cell-based, S. cerevisiae; conditions: Saccharomyces cerevisiae
How it was run: as §3

Y2766 OE CauCDR1 = test: MIC80 determination, strain Y2766; format: cell-based, S. cerevisiae; conditions: Saccharomyces cerevisiae
Method: (§4) Cells were seeded at an OD600 nm of 0.005 (1.5 × 10^4 CFU), and the plates were incubated at 30 °C with shaking at 200 rpm for 48 h for S. cerevisiae strains and 24 h for C. albicans . Cell growth was assessed by measuring the OD600 nm using a Synergy 2 multimode plate reader (BioTek Instruments, VT, USA). Each MIC80 was determined using triplicate measurements for pools of 4 clones of each strain in three separate experiments.

Y525 OE CaMDR1a = test: MIC80 determination, strain Y525; format: cell-based, S. cerevisiae
How it was run: as §3

Y433 OE CgCDR1 = test: MIC80 determination, strain Y433; format: cell-based, S. cerevisiae; conditions: Saccharomyces cerevisiae
How it was run: as §3

CYP2C19 = CYP2C19 (Homo sapiens, UniProt P33261); test: CYP IC50 profile, CYP2C19; format: biochemical; conditions: human liver drug metabolizing enzyme; read-out: CYP IC50 2C19
Y610 FHB1 = test: MIC80 determination, C. albicans clinical isolate Y610 FHB1; format: cell-based; conditions: Candida albicans; C. albicans clinical isolate Y610 FHB1 (weakly expresses CaCDR1); pH 7, 24 h
How it was run: as §3

Y71 SC5314 = test: MIC80 determination, C. albicans clinical isolate Y71 SC5314; format: cell-based; conditions: Candida albicans
How it was run: as §3

Y2767 OE CauCYP51 = test: MIC80 determination, strain Y2767; format: cell-based, S. cerevisiae
Method: as §4

[4] = tested on: Y2411 azole sensitive control strain; test: Agarose (disk) diffusion assay, strain Y2411; format: cell-based, S. cerevisiae; conditions: 10 nmol/disk, 30 °C, 48 h
Excerpt: as §1, §2

Y2459 OE CaCYP51 CaCpr = test: MIC80 determination, strain Y2459; format: cell-based, S. cerevisiae
How it was run: as §3

CYP2C9 = CYP2C9 (Homo sapiens, UniProt P11712); test: CYP IC50 profile, CYP2C9; format: biochemical; conditions: human liver drug metabolizing enzyme; read-out: CYP IC50 2C9
Y611 FHB3 = test: MIC80 determination, C. albicans clinical isolate Y611 FHB3; format: cell-based; conditions: Candida albicans, 24 h, pH 7
How it was run: as §3

Y1 = test: MIC80 determination, C. albicans clinical isolate Y1; format: cell-based; conditions: Candida albicans, pH 7, 24 h
How it was run: as §3

Y2649 OE CYP51 F1 RaCPR = test: MIC80 determination, strain Y2649; format: cell-based, S. cerevisiae
How it was run: as §3

Y2769 OE CauCYP51 K143R = test: MIC80 determination, strain Y2769; format: cell-based, S. cerevisiae
Method: as §4

Y2768 OE CauCYP51 Y132F = test: MIC80 determination, strain Y2768; format: cell-based, S. cerevisiae
Method: as §4

CYP1A2 = CYP1A2 (Homo sapiens, UniProt P05177); test: CYP IC50 profile, CYP1A2; format: biochemical; conditions: human liver drug metabolizing enzyme; read-out: CYP IC50 1A2
[5] = Saccharomyces cerevisiae, 48 h, pH 6.8

Chain of CYP2C9 (P11712 whole entry): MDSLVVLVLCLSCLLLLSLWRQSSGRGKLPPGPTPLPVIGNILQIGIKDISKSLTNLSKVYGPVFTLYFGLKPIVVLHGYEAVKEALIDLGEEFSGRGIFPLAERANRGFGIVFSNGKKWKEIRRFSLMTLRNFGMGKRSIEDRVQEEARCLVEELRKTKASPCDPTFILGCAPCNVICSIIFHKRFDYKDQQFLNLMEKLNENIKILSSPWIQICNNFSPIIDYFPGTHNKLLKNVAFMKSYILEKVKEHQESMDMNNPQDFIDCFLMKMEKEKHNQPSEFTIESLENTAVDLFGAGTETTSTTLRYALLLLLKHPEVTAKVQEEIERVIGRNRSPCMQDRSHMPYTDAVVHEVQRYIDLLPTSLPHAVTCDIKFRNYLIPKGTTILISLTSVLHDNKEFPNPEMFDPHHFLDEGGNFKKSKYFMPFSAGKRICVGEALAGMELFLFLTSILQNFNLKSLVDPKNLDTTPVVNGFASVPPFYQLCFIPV
Chain of CYP2C19 (P33261 whole entry): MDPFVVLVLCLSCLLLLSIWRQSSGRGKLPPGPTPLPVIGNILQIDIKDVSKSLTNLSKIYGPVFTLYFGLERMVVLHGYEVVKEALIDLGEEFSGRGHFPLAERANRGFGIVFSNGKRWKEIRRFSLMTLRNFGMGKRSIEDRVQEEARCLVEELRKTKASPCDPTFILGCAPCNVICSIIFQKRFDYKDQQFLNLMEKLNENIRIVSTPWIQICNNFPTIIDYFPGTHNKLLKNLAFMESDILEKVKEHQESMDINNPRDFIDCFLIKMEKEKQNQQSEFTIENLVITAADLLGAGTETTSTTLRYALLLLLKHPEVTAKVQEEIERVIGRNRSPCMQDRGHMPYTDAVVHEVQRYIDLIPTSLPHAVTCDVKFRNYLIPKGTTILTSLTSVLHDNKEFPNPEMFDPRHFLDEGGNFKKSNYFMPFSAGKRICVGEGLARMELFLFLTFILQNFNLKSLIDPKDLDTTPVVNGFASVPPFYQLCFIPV
Chain of CYP1A2 (P05177 whole entry): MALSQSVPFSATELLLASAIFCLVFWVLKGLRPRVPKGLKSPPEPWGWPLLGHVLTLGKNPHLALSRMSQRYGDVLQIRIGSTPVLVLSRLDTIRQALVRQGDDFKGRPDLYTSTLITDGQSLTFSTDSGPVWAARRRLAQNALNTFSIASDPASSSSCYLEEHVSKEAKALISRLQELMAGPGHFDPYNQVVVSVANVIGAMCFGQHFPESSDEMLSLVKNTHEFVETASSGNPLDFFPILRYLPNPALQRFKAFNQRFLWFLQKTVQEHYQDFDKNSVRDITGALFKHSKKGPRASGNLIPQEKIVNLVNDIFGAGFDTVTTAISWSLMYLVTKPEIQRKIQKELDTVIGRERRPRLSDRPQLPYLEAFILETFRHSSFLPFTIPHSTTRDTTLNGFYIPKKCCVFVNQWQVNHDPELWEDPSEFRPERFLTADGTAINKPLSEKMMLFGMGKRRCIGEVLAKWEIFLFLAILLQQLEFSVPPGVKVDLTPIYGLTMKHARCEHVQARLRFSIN
Chain of CYP3A4 (P08684 whole entry, the tested form may be a part): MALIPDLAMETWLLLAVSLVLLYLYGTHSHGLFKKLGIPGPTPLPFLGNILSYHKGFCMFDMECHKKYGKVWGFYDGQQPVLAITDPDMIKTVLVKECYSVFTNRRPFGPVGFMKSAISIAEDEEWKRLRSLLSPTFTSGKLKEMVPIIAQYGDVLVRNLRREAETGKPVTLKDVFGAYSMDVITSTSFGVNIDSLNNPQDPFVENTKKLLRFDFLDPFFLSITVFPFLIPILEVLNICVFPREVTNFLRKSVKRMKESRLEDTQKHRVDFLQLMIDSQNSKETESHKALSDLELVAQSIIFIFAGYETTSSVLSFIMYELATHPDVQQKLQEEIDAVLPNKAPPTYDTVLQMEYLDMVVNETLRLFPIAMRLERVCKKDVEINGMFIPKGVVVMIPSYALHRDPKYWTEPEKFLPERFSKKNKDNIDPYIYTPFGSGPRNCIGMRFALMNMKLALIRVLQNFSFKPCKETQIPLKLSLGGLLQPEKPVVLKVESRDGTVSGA

**Q.** With O=C(NCC(O)(Cn1cncn1)c1ccc(F)cc1F)c1ccc(-c2ccc(OC(F)(F)F)cc2)cc1 (stereo not drawn) [Compound 22, N-(2-(2,4-Difluorophenyl)-2-hydroxy-3-(1H-1,2,4-triazol-1-yl)propyl)-4’-(trifluoromethoxy)-[1,1’-biphenyl]-4-carboxamide] as the compound, how does the IC50 (CYP3A4) read?
**A.** The IC50 was 1.62 ± 0.23 µM.

**Q.** And the “zone of growth inhibition (inhibitory activity in words)” value (“zone of growth inhibition” for short) [1]?
**A.** The value was “visible reduction in potency”.

**Q.** What about the “zone of growth inhibition” value [2] of the same compound?
**A.** The value was “no effect on its potency”.

**Q.** What about the “zone of growth inhibition” value [3] of the same compound?
**A.** The value was “unaffected inhibition zone size”.

**Q.** And the MIC80 (Y2374 OE CgCYP51)?
**A.** The MIC80 was 0.101 µM.

**Q.** And the MIC (Y2374 OE CgCYP51; read-out: MIC (nM) C. glabrate model Y2374)?
**A.** The MIC was 101 nM.

**Q.** What about the MIC80 (2711 CnCYP51 OE CnCPR; Saccharomyces cerevisiae) of the same compound?
**A.** The MIC80 was 0.018 µM.

**Q.** What about the MIC (2711 CnCYP51 OE CnCPR; read-out: MIC (nM) C. neoformans model Y2711) of the same compound?
**A.** Its MIC is 18 nM.

**Q.** What about the MIC80 (Y2411 Endog. ScCYP51; strain Y2411 Endog. ScCYP51, SD pH 6.8, 30 °C, 48 h) of the same compound?
**A.** The MIC80 was 0.03 ± 0.023 µM.

**Q.** What about the MIC (Y2411 Endog. ScCYP51; supplement csv, read-out: MIC (nM) S. cerevisiae Y2411) of the same compound?
**A.** Its MIC is 30 ± 23 nM.

**Q.** And the MIC80 (Y2766 OE CauCDR1)?
**A.** The MIC80 was 20.9 µM.

**Q.** And the MIC80 (Y525 OE CaMDR1a; [5])?
**A.** The MIC80 was 0.451 µM.

**Q.** What about the MIC (Y525 OE CaMDR1a; read-out: MIC (nM) C. albicans model Y525) of the same compound?
**A.** Its MIC is 451 nM.

**Q.** And the MIC80 (Y433 OE CgCDR1)?
**A.** Its MIC80 is 5.85 µM.

**Q.** And the IC50 (CYP2C19)?
**A.** The IC50 was 14.5 ± 2.23 µM.

**Q.** And the MIC80 (Y610 FHB1)?
**A.** The MIC80 was 0.153 ± 0.067 µM.

**Q.** What about the MIC (Y71 SC5314; SC5314, supplement csv) of the same compound?
**A.** Its MIC is 40 nM.

**Q.** And the MIC80 (Y71 SC5314; C. albicans clinical isolate Y71 SC5314, pH 7, 24 h)?
**A.** Its MIC80 is 0.04 µM.

**Q.** What about the MIC (Y2767 OE CauCYP51; Candidozyma auris, read-out: MIC (nM) C. auris model Y2767) of the same compound?
**A.** The MIC was 110 ± 10 nM.

**Q.** What about the MIC80 (Y2767 OE CauCYP51; Saccharomyces cerevisiae) of the same compound?
**A.** The MIC80 was 0.11 ± 0.01 µM.

**Q.** What about the “zone of growth inhibition” value [4] of the same compound?
**A.** Its value is “high potency”.

**Q.** What about the MIC80 (Y2459 OE CaCYP51 CaCpr; [5]) of the same compound?
**A.** Its MIC80 is 0.054 ± 0.022 µM.

**Q.** What about the MIC (Y2459 OE CaCYP51 CaCpr; read-out: MIC (nM) C. albicans model Y2459) of the same compound?
**A.** The MIC was 54 ± 22 nM.

**Q.** What about the IC50 (CYP2C9) of the same compound?
**A.** The IC50 was > 25 µM.

**Q.** And the MIC80 (Y611 FHB3)?
**A.** Its MIC80 is 1.65 µM.

**Q.** What about the MIC80 (Y1) of the same compound?
**A.** Its MIC80 is 0.067 µM.

**Q.** And the MIC (Y2649 OE CYP51 F1 RaCPR; Rhizopus arrhizus, read-out: MIC (nM) R. arrhizus model Y2649)?
**A.** Its MIC is 470 ± 240 nM.

**Q.** And the MIC80 (Y2649 OE CYP51 F1 RaCPR; Saccharomyces cerevisiae)?
**A.** The MIC80 was 0.47 ± 0.24 µM.

**Q.** And the MIC (Y2769 OE CauCYP51 K143R; Candidozyma auris, read-out: MIC (nM) C. auris model Y2769)?
**A.** The MIC was 225 ± 33 nM.

**Q.** And the MIC80 (Y2769 OE CauCYP51 K143R; Saccharomyces cerevisiae)?
**A.** Its MIC80 is 0.225 ± 0.033 µM.

**Q.** What about the MIC (Y2768 OE CauCYP51 Y132F; Candidozyma auris, read-out: MIC (nM) C. auris model Y2768) of the same compound?
**A.** The MIC was 241 ± 38 nM.

**Q.** What about the MIC80 (Y2768 OE CauCYP51 Y132F; Saccharomyces cerevisiae) of the same compound?
**A.** Its MIC80 is 0.241 ± 0.038 µM.

**Q.** And the IC50 (CYP1A2)?
**A.** Its IC50 is 9.33 ± 1.39 µM.
